Read-outs that look alike come from different tables or passages of the source.
How the values were obtained:
HT-29 colon carcinoma = assay: MTS growth inhibition assay, single agent studies; type: cell-based; details: Homo sapiens, HT-29, 72 h, 3 days in culture
Procedure: (§1) Human tumor cell lines MiaPaCa-2 pancreatic carcinoma (mutant ras, gemcitabine sensitive) and HT-29 colon carcinoma (polyposis type, mutant p53 and APC, chemosensitive) were purchased from the ATCC (Rockville, Md.). […] Cells grown to 70% confluency were trypsinized and resuspended into cell culture medium at a concentration of 10^5 cells/ml. On Day 0 of the experiment, a […] aliquot of tumor cells was plated into internal wells of a 96-well microtiter plate at an appropriate density (in the range of 2×10^3 to 10^4 cells/well). The cells were incubated for 24 hours to allow maximum adhesion prior to exposure with test agents. […] The starting concentration and the test range of 5-FU were determined empirically for each cell line. Treatment with 5-FU started on Day 1. There were 6 replicates for each dose determination. Both drugs were added once without the medium change. After 3 days in culture, the number of proliferating cells was measured by the MTS assay described below. The test was repeated twice to quantify growth inhibitory activity. […] IC50 values were generated from two separate experiments. […] The MTS reagent is a tetrazolium compound and an electron coupling reagent. The MTS tetrazolium compound is bioreduced by cells into a colored formazan product soluble in cell culture medium. The conversion is catalyzed by NADPH or NADH produced by dehydrogenase enzymes in metabolically active cells. The MTS assay is a colorimetic assay based upon the ability of viable cells to convert […] to formazan; the quantity of formazan product, as measured by the 490 nm absorbance, is directly proportional to the number of viable cells in culture. An automated procedure determines the IC50 value. Exponentially growing cells in […] of cell culture medium are plated on Day 0 in 96-well microtiter plates at a concentration of 10^4 cells/well. […] At the end of the designated time period, 100 microL of growth medium is removed. […] Absorbance is documented on a Dynex HD microplate reader at a wavelength of 490 nm. The data was calculated as percent growth inhibition, wherein 0% represents the mean value in wells to which only vehicle (cell culture medium) was added. The % Growth Inhibition was calculated as follows: % Growth Inhibition=(1−(ODtest/ODvehicle)×100, where ODtest is the optical density of the tested sample, and ODvehicle is the optical density of the vehicle in which each respective drug is dissolved. […] To determine the interaction, there must be a significant difference that exists between the combination absorbance values and both endpoint values. For example, if the values are statistically (p<0.05) above or below the absorbance values of either agent tested alone, then antagonism or synergy is described. […]

[1] = tested on: MiaPaCa-2 pancreatic carcinoma; assay: MTS growth inhibition assay, single agent studies; type: cell-based; details: Homo sapiens, MIA PaCa-2, 72 h, 3 days in culture
Procedure: as §1

[2] = dog, in vivo
[3] = tested on: MV522 human tumor carcinomas; assay: Tumor growth delay study in mouse MV522 xenograft model (TH-PT-001)
Procedure: Female nude mice (nu/nu) between 5 and 6 weeks of age and weighing approximately 20 g were obtained from Harlan, Inc. (Madison, Wis.). Animals were implanted subcutaneously by trocar with fragments of Mv522 human tumor carcinomas harvested from subcutaneously growing tumors in nude mice hosts. When the tumors were approximately 71 mg in size (11 days following inoculation), the animals were pair-matched into treatment and control groups. Each group contained 10 tumored mice. Each mouse was ear-tagged and followed individually throughout the experiment. Initial doses were given on Day 1 following pair-matching. […] Sterile water was administered orally bid×5 to end to serve as the negative control. Mice were weighed twice weekly, and tumor measurements were obtained using calipers twice weekly, starting on Day 1. These tumor measurements were converted to mg tumor weight by the standard formula (W^2×L)/2. Each mouse was sacrificed when its tumor weight reached 1000 mg. In this test, the average day of sacrifice was determined for all groups and the tumor growth delay (TGD) for each treatment group, compared to the control group, was calculated.
All of these studies are outlined in the following table.

MV522 cells = assay: Sulforhodamine B (SRB) growth inhibition assay; type: cell-based; details: Homo sapiens, 72 hours treatment
Procedure: (§2) The human lung tumor cell lines were MV522 and NCI-H23, both of which were derived from tumors displaying histopathology of adenocarcinoma, one of the at least three types of NSCLC. The NCI-H23 tumor cell line is available from the ATCC (Rockville, Md.), and the MV522 cell line was obtained by Dr. M. J. Kelner of the University of California. The cells were cultured in RPMI medium (Nova Tech, Grand Island, N.Y.) at 37° C. in a humidified atmosphere containing 5% CO2. For passaging, cells grown in 75 cm^2 flasks (60–70% confluency) were washed with PBS and dislodged from the flasks with trypsin (Gibco BRL) before being passaged. Cells used for the experiments described below were centrifuged and resuspended in cell culture medium at a concentration of 10^5 cells/mL. A 100 microliter aliquot (ten thousand cells) was plated into each well of a 96-well microtiter plate.
(§3) Docetaxel (Taxotere™, Aventis Pharmaceuticals, Inc.) solubilized in 100% DMSO and diluted 1000×to the desired concentration (0.1% DMSO final concentration), was used as a positive control. […] Exponentially growing cells in 100 microliters of cell culture medium were plated on Day 0 in 96-well microtiter plates at a concentration of 10^4 cells/well. On Day 1, drugs were added to each well of the microtiter plate with the designated concentration in 100 microliter aliquots of cell culture medium and incubated at 37° C. in a humidified incubator (5% CO2/95% HEPA filtered air). After three days of treatment, adherent cells were fixed by adding 50 microliters of cold 50% trichloracetic acid to each well and incubating for one hour at 4° C. The supernatant was discarded, and plates were washed twice with de-ionized water and air-dried. One hundred microliters of SRB solution were added to each well of the plate and incubated ten minutes at room temperature. Unbound SRB stain was removed by washing twice with 1% acetic acid. The bound SRB stain was solubilized with 10 mM Tris buffer, and the optical densities read at a single wavelength of 515 nm.
(§4) IC50 values (50% effective dose) were calculated from two different experiments, each of which involved 6 replicates for each dose tested. […]

NCI-H23 cells = assay: Sulforhodamine B (SRB) growth inhibition assay; type: cell-based; details: Homo sapiens, 72 hours treatment
Procedure: as §2, §3, §4

MV522 xenograft = assay: 2-DG/Paclitaxel dosing study in mouse MV522 xenograft model; type: in vivo
Procedure: The mouse MV522 xenograft model substantially as described in Example 2 was used to compare the effects of dosing 2-DG orally (in water) either at a single dose of 4 g/kg or in multiple doses (twice a day at 2 g/kg) in various combinations with paclitaxel dosed i.p. as a single dose (30 mg/kg) or in multiple doses (once daily at 10 mg/kg).

[4] = for deaths: bid×5
Procedure: (§5) The maximum tolerated dose determination for this study was conducted using female nude mice (nu/nu) between 5 and 6 weeks of age weighing approximately 20 g (Harlan, Inc., Madison, Wis.). Dosing began on Day 1. […] A 20 mL/kg dose volume was used to achieve doses of 2000, 4000, 6000, 8000, and 9000 mg/kg/dose. Individual mouse weights in grams were recorded twice weekly throughout the study. The average weight per group was calculated, and weight gain or loss was determined by comparing the current Day's average to the Day 1 average for that same group. The study was terminated on Day 21.

[5] = tested on: human non-small cell lung cancer (NSCLC) tumor cell lines; assay: Proliferation with simultaneous 2-DG and Taxol treatment; type: cell-based
[6] = rat, in vivo
[7] = MTD study of combined 2-DG/cisplatin treatment versus cisplatin alone (TH-PT-002); details: cisplatin 2, 3, or 4 mg/kg/dose i.p. qd Days 6–10 with or without 2-DG 2000 mg/kg/dose oral qd days 1–10
Procedure: as §5, with “A 20 mL/kg dose volume was used to achieve doses of 2000, 4000, 6000, 8000, and 9000 mg/kg/dose.” left out

[8] = tested on: H460, H23, H522 and H661 cells; assay: Inhibition of proliferation of NSCLC tumor cell lines; type: cell-based; details: most human NSCLC tumor cell lines
H2347 cells = assay: Inhibition of proliferation of Taxol-resistant cell line; type: cell-based; details: Homo sapiens, NCI-H2347
[9] = tested on: MV522 non-small cell lung cancer (NSCLC) xenograft; assay: Third efficacy study, paclitaxel alone or with oral 2-DG, tumor growth delay (TH-PT-003); type: in vivo, nude mice; details: paclitaxel alone 10 mg/kg/dose i.p. days 6–10
Procedure: An increase in efficacy was defined as a significant (P<0.05) increase in the time for the tumor to grow to 1000 mg (tumor growth delay—TGD) compared to vehicle alone or, for combination treatment groups, chemotherapy alone, as calculated using a two-tailed t-test. Female nude mice, ten per treatment arm, were implanted subcutaneously (s.c.) with trocar fragments of MV522 tumors harvested from s.c. tumors growing in nude mice hosts. Body weights and tumor measurements were taken biweekly. When tumors reached ˜70 mg, treatment was started. Mice were sacrificed when their individual tumor reached ˜1000 mg. All doses are reported as mg/kg/dose. […] The mice were then dosed i.p. with 10 mg/kg/dose paclitaxel once a day on days 6–10. […] Dosing with paclitaxel began when the tumors were approximately 200 mg.

O=CC[C@@H](O)[C@H](O)[C@H](O)CO [2-DG, 2-deoxy-D-glucose]
IC50 (HT-29 colon carcinoma; 11 mM glucose medium): 9830 µM
IC50 ([1]; 11 mM glucose medium): 2620 µM
visible signs of toxicity, multiple dose (5-day) [2]: no visible signs of toxicity
tolerability, single oral doses ([2]; po): well tolerated
toxicity, single oral dose ([2]; po, 1 h): emesis at 1 hour but no other visible toxicity
tumor growth rate ([3]; 2-DG single agent 0–2000 mg/kg/dose, twice a day): did not slow the tumor growth rate
mean day of sacrifice ([3]; 2-DG single agent 750 mg/kg p.o. bid×5 to end): 28.9+/−3.7
mean day of sacrifice ([3]; 2-DG single agent 1000 mg/kg p.o. (Days 1–14 dose 50 mg/kg) bid×5 to end): 27.2+/−2.7
mean day of sacrifice ([3]; 2-DG single agent 1500 mg/kg p.o. (Days 1–14 dose 150 mg/kg) bid×5 to end): 28.2+/−4.6
mean day of sacrifice ([3]; 2-DG single agent 2000 mg/kg p.o. (Days 1–14 dose 400 mg/kg) bid×5 to end): 29.4+/−3.1
toxic deaths ([3]; 2-DG single agent groups): no toxic deaths
weight loss ([3]; mouse, in vivo): little weight loss
IC50 (MV522 cells): 3740 ± 740 µM
IC50 (NCI-H23 cells): 1860 ± 532 µM
tumor growth (MV522 xenograft; 2-DG alone, oral, 10 days of dosing more effective than 5): small delay in tumor growth
deaths ([4]; 6000 mg/kg/dose group): One mouse died
deaths ([4]; 8000 and 9000 mg/kg/dose groups): All 5 mice died
maximum tolerated dose (MTD) ([4]; mouse, in vivo): 4000 mg/kg/dose
effect on proliferation ([5]; 1 mM 2-DG by itself): no effect on proliferation by itself
visible signs of toxicity, multiple dose (5-day) [6]: no visible signs of toxicity
toxicity, single oral dose ([6]; po): non-toxic

O=c1[nH]cc(F)c(=O)[nH]1 [5-FU, 5-fluoro-2,4(1H,3H)-pyrimidinedione, reference compound]
IC50 (HT-29 colon carcinoma): 1.9 µg/mL
IC50 [1]: 2.58 µg/mL

CC(=O)O[C@@]12CO[C@@H]1C[C@H](O)[C@@]1(C)C(=O)[C@H](O)C3=C(C)[C@@H](OC(=O)[C@H](O)[C@@H](NC(=O)OC(C)(C)C)c4ccccc4)C[C@@](O)([C@@H](OC(=O)c4ccccc4)[C@H]21)C3(C)C [Docetaxel, reference compound]
IC50 (MV522 cells): 0.00211 ± 0.000601 µM
IC50 (NCI-H23 cells): 0.00164 ± 0.000211 µM

N.N.[Cl][Pt][Cl] [cisplatin, cis-Diaminedichloroplatinum (II)]
deaths during the 21 days of the study [7]: No mice died
TGD (tumor growth delay) ([3]; cisplatin 1 mg/kg i.p. Days 1–5): 15.8 days
TGD (tumor growth delay) ([3]; cisplatin 2 mg/kg i.p. Days 1–5): 32.6 days
mean day of sacrifice ([3]; cisplatin single agent 1 mg/kg i.p. Days 1–5): 42.3+/−0.9
mean day of sacrifice ([3]; cisplatin single agent 2 mg/kg i.p. Days 1–5): 59.1+/−5.7
complete regressions ([3]; high dose cisplatin group (2 mg/kg), 10 mice): Two mice

CC(=O)O[C@H]1C(=O)[C@@]2(C)[C@H]([C@H](OC(=O)c3ccccc3)[C@]3(O)C[C@H](OC(=O)[C@H](O)[C@@H](NC(=O)c4ccccc4)c4ccccc4)C(C)=C1C3(C)C)[C@]1(OC(C)=O)CO[C@@H]1C[C@@H]2O [paclitaxel]
toxic deaths ([3]; paclitaxel 16 mg/kg i.p. Days 1–5): no toxic deaths
complete regression ([3]; paclitaxel 16 mg/kg i.p. Days 1–5, 10 mice): one mouse experiencing a complete regression
mean day of sacrifice ([3]; paclitaxel 16 mg/kg i.p. Days 1–5, sacrifice at tumor weight 1000 mg): 56.8+/−4.3
TGD (tumor growth delay) ([3]; paclitaxel 16 mg/kg i.p. Days 1–5, vs negative control): 34.4 days
efficacy of single dose 30 mg/kg versus 5 doses at 10 mg/kg (MV522 xenograft; paclitaxel i.p.): more effective
IC50 [8]: 0.05 to 0.2 µM
IC50 (H2347 cells): > 1 µM
deaths [9]: One death per group
inhibition of proliferation ([5]; 200 nM Taxol alone, one test): ~20%
